The values that follow come from US10160762B2, “6-alkyl dihydropyrazolopyrimidinone compounds as PDE2 inhibitors” (Merck Sharp & Dohme Corp., priority 2015, dated 2018).

The target in the test is T1, human PDE2A1 (Homo sapiens, UniProt O00408).
T1 construct: GST; purchased BPS Bioscience (San Diego, Calif.) 60020; host or cells: insect cells
Nature of the test: IMAP FP PDE assay, human PDE2A1. To be noted: Lab B; read-out: Human PDE2 Ki (nM) Lab B. In kind it is biochemical. As to the method:
Selectivity for PDE2, as compared to other PDE families, was assessed using the IMAP® technology. Human PDE10A2 enzyme was prepared from cytosolic fractions of transiently transfected HEK cells. All other PDE's were GST Tag human enzyme expressed in insect cells and were obtained from BPS Bioscience (San Diego, Calif.): PDE1A (Cat#60010), human PDE2A1 (Cat#60020), PDE3A (Cat#60030), PDE4A1A (Cat#60040), PDE5A1 (Cat#60050), PDE6C (Cat#60060), PDE7A (Cat#60070), PDE8A1 (Cat#60080), PDE9A2 (Cat#60090), PDE11A4 (Cat#60110).
Assays for PDE 1 through 11 were performed in parallel at room temperature in 384-well microtiter plates with an incubation volume of 20.2 μL. Solutions of test compounds were prepared in DMSO and serially diluted with DMSO to yield 30 μL of each of ten solutions differing by 3-fold in concentration, at 32 serial dilutions per plate. […] A Labcyte POD 810 (Labcyte, Sunnyvale, Calif.) was used to dispense 200 nL from each well of the titration plate to make eleven copies of the assay plate for each titration, one copy for each PDE enzyme. A solution of each enzyme (dilution from aliquots, sufficient to produce 20% substrate conversion) and a separate solution of FAM-labeled cAMP or FAM-labeled cGMP from Molecular Devices (Sunnyvale, Calif., product # R7506 or cGMP#R7508), at a final concentration of 50 nM were made in the assay buffer (10 mM Tris HCl, pH 7.2, 10 mM MgCl2, 0.05% NaN3 0.01% Tween-20, and 1 mM DTT). Note that the substrate for PDE2 is 50 nM FAM cAMP containing 1000 nM of cGMP. The enzyme and the substrate were then added to the assay plates in two consecutive additions of 10 μL and then shaken to mix. The reaction was allowed to proceed at room temperature for 60 minutes. A binding solution was then made from the kit components, comprised of 80% Solution A, 20% Solution B and binding reagent at a volume of 1/600 the total binding solution. The enzymatic reaction was stopped by addition of 60 μL of the binding solution to each well of the assay plate. The plates were sealed and shaken for 10 seconds. The plates were incubated at room temperature for one hour, then the parallel and perpendicular fluorescence was measured using a Tecan Genios Pro plate reader (Tecan, Switzerland). The apparent inhibition constants for the compounds against all 11 PDE's was determined from the parallel and perpendicular fluorescent readings as described for PDE10 FP assay using the following apparent KM values for each enzyme and substrate combination: PDE1A (FAM cGMP) 70 nM, human PDE2A1 (FAM cAMP) 10,000 nM, PDE3A (FAM cAMP) 50 nM, PDE4A1A (FAM cAMP) 1500 nM, PDE5A1 (FAM cGMP) 400 nM, PDE6C (FAM cGMP) 700 nM, PDE7A (FAM cAMP) 150 nM, PDE8A1 (FAM cAMP) 50 nM, PDE9A2 (FAM cGMP) 60 nM, PDE10A2 (FAM cAMP) 150 nM, PDE11A4 (FAM cAMP) 1000 nM. The intrinsic PDE2 inhibitory activity of a compound which may be used in accordance with the present invention may be determined by these assays.

T1 sequence (O00408 1-920 isoform O00408-2): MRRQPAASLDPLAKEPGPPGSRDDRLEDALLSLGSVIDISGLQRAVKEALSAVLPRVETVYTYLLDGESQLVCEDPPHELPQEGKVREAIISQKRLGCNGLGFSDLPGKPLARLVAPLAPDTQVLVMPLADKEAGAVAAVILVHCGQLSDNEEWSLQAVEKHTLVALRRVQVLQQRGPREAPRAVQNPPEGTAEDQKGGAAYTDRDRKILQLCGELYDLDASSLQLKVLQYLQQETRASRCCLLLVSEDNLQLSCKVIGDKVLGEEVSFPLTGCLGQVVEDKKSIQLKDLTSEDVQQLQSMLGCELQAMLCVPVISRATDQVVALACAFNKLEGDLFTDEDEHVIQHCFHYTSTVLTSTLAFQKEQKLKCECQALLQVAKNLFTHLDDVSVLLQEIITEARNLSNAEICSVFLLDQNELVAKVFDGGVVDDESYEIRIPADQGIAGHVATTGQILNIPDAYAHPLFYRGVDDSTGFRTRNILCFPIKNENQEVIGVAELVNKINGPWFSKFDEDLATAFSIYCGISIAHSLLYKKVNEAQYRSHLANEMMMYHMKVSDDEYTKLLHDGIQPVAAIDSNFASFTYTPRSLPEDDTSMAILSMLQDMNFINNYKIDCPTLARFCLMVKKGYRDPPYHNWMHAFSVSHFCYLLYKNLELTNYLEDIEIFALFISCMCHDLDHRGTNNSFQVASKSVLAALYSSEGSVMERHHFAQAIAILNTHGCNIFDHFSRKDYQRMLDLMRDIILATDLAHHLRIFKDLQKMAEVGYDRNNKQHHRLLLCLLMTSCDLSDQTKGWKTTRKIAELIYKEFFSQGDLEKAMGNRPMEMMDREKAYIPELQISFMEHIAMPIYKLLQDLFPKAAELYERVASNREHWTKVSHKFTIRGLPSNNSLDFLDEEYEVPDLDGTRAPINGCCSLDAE

As a reminder, the Ki is a dissociation constant, usually derived from enzyme kinetics or from competition with a known ligand. With `Cc1nc2c(c(CO)nn2C2CCc3cc(C(F)(F)F)ccc32)c(=O)[nH]1` (single isomer, unassigned) [Example 103, (S)- or (R)-3-(Hydroxymethyl)-6-methyl-1-(5-(trifluoromethyl)-2,3-dihydro-1H-inden-1-yl)-1H-pyrazolo[3,4-d]pyrimidin-4(5H)-one], the Ki was found to be 19 nM. `CC(=O)c1nn([C@@H](C)c2ccc(C(F)(F)F)cc2)c2nc(C)[nH]c(=O)c12` [Example 322, (S)-3-Acetyl-6-methyl-1-(1-(4-(trifluoromethyl)phenyl)ethyl)-1,5-dihydro-4H-pyrazolo[3,4-d]pyrimidin-4-one]: the Ki turned out to be 42 nM. Consider `COCc1nc2c(c(C(F)F)nn2C(C)c2ccc(C(F)(F)F)cc2)c(=O)[nH]1` (single isomer, unassigned) [Example 187, (R)- or (S)-3-(Difluoromethyl)-6-(methoxymethyl)-1-{1-[4-(trifluoromethyl)phenyl]ethyl}-1,5-dihydro-4H-pyrazolo-[3,4-d]pyrimidin-4-one], for which the Ki came to 231 nM. With `CCc1nc2c(c(C(F)F)nn2C(C)c2ccc(C(F)(F)F)cc2)c(=O)[nH]1` (single isomer, unassigned) [Example 189, (R)- or (S)-3-(Difluoromethyl)-6-ethyl-1-(1-(4-(trifluoromethyl)phenyl)ethyl)-1,5-dihydro-4H-pyrazolo[3,4-d]pyrimidin-4-one] the figure was 330 nM; with `COc1cccc(Cc2nc3c(c(-c4nnco4)nn3C(C)c3ccc(C(F)(F)F)cc3)c(=O)[nH]2)c1` (single isomer, unassigned) [Example 345, (S)- or (R)-6-(3-Methoxybenzyl)-3-(1,3,4-oxadiazol-2-yl)-1-(1-(4-(trifluoromethyl)phenyl)ethyl)-1,5-dihydro-4H-pyrazolo[3,4-d] pyrimidin-4-one], 0.15 nM; with `CNC(=O)c1nn(C(C)c2ccc(C(F)(F)F)cc2)c2nc(C)[nH]c(=O)c12` (single isomer, unassigned) [Example 265], 375 nM. The value for `Cc1nc2c(c(CO)nn2C(C)c2ccc(C(F)(F)F)cn2)c(=O)[nH]1` (single isomer, unassigned) [Example 151, (R)- or (S)-3-(Hydroxymethyl)-6-methyl-1-(1-(5-(trifluoromethyl)pyridin-2-yl)ethyl)-1H-pyrazolo[3,4-d]pyrimidin-4(5H)-one] was 25 nM.

`Cc1nc2c(c(C(F)F)nn2C(C)c2ccc(C(F)(F)F)cc2F)c(=O)[nH]1` (single isomer, unassigned) [Example 185, (R)- or (S)-3-(Difluoro-methyl)-1-(1-(2-fluoro-4-(trifluoro-methyl)phenyl)-ethyl)-6-methyl-1H-pyrazolo[3,4-d]pyrimidin-4(5H)-one]: the Ki turned out to be 303 nM. With `CC(c1ccc(C(F)(F)F)cc1)n1nc(CO)c2c(=O)[nH]c(CC3CC3)nc21` (single isomer, unassigned) [Example 310, (S)- or (R)-6-(Cyclopropyl-methyl)-3-(hydroxymethyl)-1-(1-(4-(trifluoromethyl)phenyl)ethyl)-1,5-dihydro-4H-pyrazolo[3,4-d]pyrimidin-4-one] the figure was 11 nM; with `Cc1nc2c(c(CO)nn2C(C)c2ncn(CC(F)(F)F)n2)c(=O)[nH]1` (single isomer, unassigned) [Example 147], greater than 2960 nM; with `Cc1nc2c(c(C(F)F)nn2C(C)c2ccc(C3(C(F)(F)F)CC3)cc2)c(=O)[nH]1` (stereo not shown) [Example 164, 3-(Difluoromethyl)-6-methyl-1-(1-(4-(1-(trifluoromethyl)cyclopropyl)phenyl)ethyl)-1H-pyrazolo[3,4-d]pyrimidin-4(5H)-one], 8.2 nM. `Cc1nc2c(c(CO)nn2C(C)c2ccc(C(F)(F)C(F)(F)F)cc2)c(=O)[nH]1` (single isomer, unassigned) [Example 98, (R)- or (S)-3-(Hydroxymethyl)-6-methyl-1-(1-(4-(perfluoroethyl)phenyl)ethyl)-1H-pyrazolo[3,4-d]pyrimidin-4(5H)-one]: the Ki is 591 nM. With `Cc1nc2c(c(-c3ccco3)nn2C(C)c2ccc(C(F)(F)F)cc2)c(=O)[nH]1` (single isomer, unassigned) [Example 74, (R)- or (S)-3-(Furan-2-yl)-6-methyl-1-(1-(4-(trifluoromethyl)phenyl)ethyl)-1H-pyrazolo[3,4-d]pyrimidin-4(5H)-one] the figure was 258 nM; with `Cc1nc2c(c(CO)nn2C(C)c2ccc(C(F)(F)F)nn2)c(=O)[nH]1` (single isomer, unassigned) [Example 145, (R)- or (S)-3-(Hydroxymethyl)-6-methyl-1-(1-(6-(trifluoromethyl)pyridazin-3-yl)ethyl)-1H-pyrazolo[3,4-d]pyrimidin-4(5H)-one], greater than 2960 nM; with `CCC(c1ccc(OC(F)(F)F)cc1)n1nc(CO)c2c(=O)[nH]c(C)nc21` (single isomer, unassigned) [Example 134, (R)- or (S)-3-(Hydroxymethyl)-6-methyl-1-(1-(4-(trifluoro-methoxy)phenyl)propyl)-1H-pyrazolo[3,4-d]pyrimidin-4(5H)-one], 51 nM. As to `Cc1nc2c(c(C(F)F)nn2C(C)c2ccc(OC(F)F)cc2)c(=O)[nH]1` (single isomer, unassigned) [Example 181, (R)- or (S)-1-(1-(4-(Difluoromethoxy)phenyl)ethyl)-3-(difluoromethyl)-6-methyl-1H-pyrazolo[3,4-d]pyrimidin-4(5H)-one], the Ki was 82 nM.

With `CC(C)Cc1nc2c(c(CO)nn2C(C)c2ccc(C(F)(F)F)cc2)c(=O)[nH]1` (single isomer, unassigned) [Example 305, (R)- or (S)-3-(Hydroxy-methyl)-6-isobutyl-1-(1-(4-(trifluoromethyl)phenyl)ethyl)-1,5-dihydro-4H-pyrazolo-[3,4-d]pyrimidin-4-one], the Ki stood at 17 nM. As to `CCc1nc2c(c(CO)nn2C(C)c2ccc(C(F)(F)F)cc2)c(=O)[nH]1` (single isomer, unassigned) [Example 302, (S)- or (R)-6-Ethyl-3-(hydroxymethyl)-1-{1-[4-(trifluoromethyl)phenyl]ethyl}-1,5-dihydro-4H-pyrazolo[3,4-d]pyrimidin-4-one], the Ki stood at 116 nM.

With `Cc1nc2c(c(C(F)F)nn2C(C)c2ccc(OC(F)(F)F)c(F)c2)c(=O)[nH]1` (single isomer, unassigned) [Example 169, (R)- or (S)-3-(Difluoromethyl)-1-(1-(3-fluoro-4-(trifluoromethoxy)phenyl)ethyl)-6-methyl-1H-pyrazolo [3,4-d]pyrimidin-4(5H)-one], the Ki stood at 18 nM.

Regarding `Cc1nc2c(c(C(F)F)nn2C(C)c2ccc(C(F)(F)F)cc2Cl)c(=O)[nH]1` (single isomer, unassigned) [Example 184, (S)- or (R)-1-(1-(2-Chloro-4-(trifluoro-methyl)phenyl)-ethyl)-3-(difluoromethyl)-6-methyl-1H-pyrazolo[3,4-d]pyrimidin-4(5H)-one], the Ki was 1.6 nM. The value for `CCCc1nc2c(c(CO)nn2C(C)c2ccc(C(F)(F)F)cc2)c(=O)[nH]1` (single isomer, unassigned) [Example 303, (R)- or (S)-3-(Hydroxymethyl)-6-propyl-1-(1-(4-(trifluoromethyl)phenyl)ethyl)-1,5-dihydro-4H-pyrazolo[3,4-d]pyrimidin-4-one] was 4.7 nM; that for `Cc1nc2c(c(CC(F)(F)F)nn2C(c2ccc(C(F)(F)F)c(F)c2)C2(C)CC2)c(=O)[nH]1` (single isomer, unassigned) [Example 63, (S)- or (R)-1-((3-Fluoro-4-(trifluoromethyl)phenyl)(1-methylcyclopropyl)methyl)-6-methyl-3-(2,2,2-trifluoroethyl)-1H-pyrazolo[3,4-d]pyrimidin-4(5H)-one] was 45 nM.
